Data: patent US8946234B2, “Halogen-substituted compounds” (Bayer CropScience AG, priority 2008, dated 2015)

experiment: physchem; format: physicochemical; details: not given
Procedure: ^a) Note regarding the determination of the log P values and mass detection: The log P values given were determined in accordance with EEC Directive 79/831 Annex V.A8 by HPLC (High Performance Liquid Chromatography) on a phase inversion column (C18). Agilent 1100 LC system; 50*4.6 Zorbax Eclipse Plus C18 1.8 micron; eluent A: acetonitrile (0.1% formic acid); eluent B: water (0.09% formic acid); linear gradient from 10% acetonitrile to 95% acetonitrile in 4.25 min, then 95% acetonitrile for a further 1.25 min; oven temperature 55° C.; flow: 2.0 ml/min. The mass detection is carried out via an Agilend MSD system.

SMILES | logP
Cn1nc(OCC(F)(F)F)c(Br)c1C(=O)Nc1ccc(Cl)c(C(=O)NCC(F)(F)F)c1 [Ik-257] | 3.26^a)
Cn1nc(OC(F)F)cc1C(=O)Nc1ccc(Cl)c(C(=O)NC2CC2)c1 [Ik-234] | 2.17^a)
C=CCNC(=O)c1cc(NC(=O)c2ccc(C(F)(F)F)nc2C)c(C)cc1Cl [Ir-8] | 2.45^a)
Cc1nc(C(F)(F)C(F)(F)F)nc(C)c1C(=O)Nc1ccc(Cl)c(C(=O)NCC(F)(F)F)c1 [Ib-12] | 3.22^a)
C=CCNC(=O)c1cc(NC(=O)c2c(C(F)(F)F)c(C(F)(F)C(F)(F)F)nn2C)ccc1Cl [Ik-93] | 3.44^a)
Cn1nc(C(F)(F)C(F)(F)F)c(C(F)(F)F)c1C(=O)Nc1ccc(Cl)c(C(=O)NCC=C(Cl)Cl)c1 [Ik-186] | 4.09^a)
CSc1c(Br)cc(NC(=O)c2c(C(F)(F)F)c(C(F)(F)C(F)(F)F)nn2C)cc1C(=O)NCc1ccccc1 [Ik-199] | 4.43^a)
CC(C)(F)n1nc(C(F)C(F)(F)F)c(C(F)(F)F)c1C(=O)Nc1ccc(Cl)c(C(=O)NC2CC2)c1 (stereo not drawn) [Ik-100] | 3.39^a)
Cn1nc(C(F)(F)C(F)(F)F)c(Br)c1C(=O)Nc1ccc(Cl)c(C(=O)NC2CC2)c1 [Ik-26] | 3.22^a)
O=C(NC1CC1)c1cc(NC(=O)c2cnc(C(F)(F)C(F)(F)C(F)(F)F)nc2C(F)(F)F)ccc1Cl [Ib-15] | 3.56^a)
Cn1nc(OCC(F)(F)F)c(Br)c1C(=O)Nc1ccc(Cl)c(C(=O)NC2CC2)c1 [Ik-256] | 2.87^a)
Cn1nc(-c2ccc(Cl)cc2Cl)c(Br)c1C(=O)Nc1ccc(Cl)c(C(=O)NC2CC2)c1 [Ik-250] | 3.59^a)
Cn1nc(C(F)(F)C(F)(F)F)c(C(F)(F)F)c1C(=O)Nc1cc(F)c(Cl)c(C(=O)NC2CC2)c1 [Ik-188] | 3.59^a)
Cn1nc(-c2cc(C(F)(F)F)cc(C(F)(F)F)c2)c(C(F)(F)F)c1C(=O)Nc1ccc(Cl)c(C(=O)NCC(F)(F)F)c1 [Ik-258] | 4.46^a)
Cc1nc(C(F)(F)F)ncc1C(=O)Nc1ccc(Cl)c(C(=O)NC2CC2)c1 [Ib-19] | 2.24v
CNC(=O)c1cc(NC(=O)c2ccc(C(F)(F)F)nc2C)ccc1Cl [Ir-5] | 1.97^a)
Cn1nc(-c2ccc(C(F)(F)F)cc2)c(Br)c1C(=O)Nc1ccc(Cl)c(C(=O)NC2CC2)c1 [Ik-249] | 3.63^a)
CC(C)NC(=O)c1cc(NC(=O)c2c(C(F)(F)F)c(C(F)(F)C(F)(F)F)nn2C)ccc1Cl [Ik-90] | 3.60^a)
O=C(NCC(F)(F)F)c1cc(NC(=O)c2nccc(C(F)(F)F)c2Cl)ccc1Cl [Ie-3] | 2.88^a)
Cn1nc(C(F)(F)C(F)(F)F)c(C(F)(F)F)c1C(=O)Nc1cc(C(=O)NCC(F)(F)F)c(Cl)cc1F [Ik-144] | 3.73^a)
Cn1nc(-c2ccc(Cl)cc2Cl)c(Br)c1C(=O)Nc1ccc(Cl)c(C(=O)NCC(F)(F)F)c1 [Ik-254] | 4.04^a)
Cn1nc(C(F)(F)C(F)(F)C(F)(F)C(F)(F)F)c(I)c1C(=O)Nc1ccc(Cl)c(C(=O)NC2CC2)c1 [Ik-265] | 3.90^a)
O=C(NCC(F)(F)F)c1cc(NC(=O)c2cnc(C(F)(F)C(F)(F)C(F)(F)F)nc2C(F)(F)F)ccc1Cl [Ib-16] | 3.88^a)
O=C(NC1CC1)c1cc(NC(=O)c2[nH]nc(C(F)(F)C(F)(F)F)c2C(F)(F)F)ccc1Cl [Ik-179] | 2.95^a)

SMILES | logP
Cn1nc(OCC(F)(F)F)cc1C(=O)Nc1ccc(Cl)c(C(=O)NC2CC2)c1 [Ik-247] | 2.55^a)
COCn1nc(C(F)(F)C(F)(F)F)c(C(F)(F)F)c1C(=O)Nc1ccc(Cl)c(C(=O)NC2CC2)c1 [Ik-219] | 3.50^a)
Cn1nc(C(F)(F)C(F)(F)F)c(C(F)(F)F)c1C(=O)Nc1cc(C(=O)NC2CC2)c(Cl)cc1Cl [Ik-147] | 3.61^a)
Cn1nc(C(F)(F)C(F)(F)F)c(C(F)(F)F)c1C(=O)Nc1cc(Br)c(Cl)c(C(=O)NCC(F)(F)F)c1 [Ik-178] | 4.14^a)
Cn1nc(C(F)(F)C(F)(F)F)c(C(F)(F)F)c1C(=O)Nc1cc(Cl)c(Br)c(C(=O)NCc2ccccc2)c1 [Ik-214] | 4.42^a)
Cn1nc(C(F)(F)C(F)(F)F)c(C(F)(F)F)c1C(=O)Nc1cc(F)c(I)c(C(=O)NCC=CCl)c1 [Ik-224] | 3.99^a)
CCN(C(=O)c1c(C(F)(F)F)c(C(F)(F)C(F)(F)F)nn1C)c1ccc(Cl)c(C(=O)NC2CC2)c1 [Ik-136] | 3.55^a)
Cn1nc(C(F)(F)F)c(Br)c1C(=O)Nc1ccc(Cl)c(C(=O)NCc2ccccc2)c1 [Ik-23] | 3.44^a)
O=C(NCc1ccccc1)c1cc(NC(=O)c2ncc(C(F)(F)F)cc2Cl)ccc1Cl [Ii-5] | 3.17^a)
Cn1nc(C(F)(F)C(F)(F)F)c(C(F)(F)F)c1C(=O)Nc1cc(Br)c(I)c(C(=O)NC2CC2)c1 [Ik-210] | 3.92^a)
Cn1nc(C(F)(F)C(F)(F)F)c(C(F)(F)F)c1C(=O)Nc1cccc(C(=O)NCc2ccccc2)c1 [Ik-14] | 3.77^a)
C=CCNC(=O)c1cc(NC(=O)c2ccc(C(F)(F)F)nc2Cl)c(C)cc1Cl [Ir-7] | 2.68^a)
O=C(NCc1ccccc1)c1cc(NC(=O)c2cnc(C(F)(F)F)nc2C(F)(F)F)ccc1Cl [Ib-6] | 3.39^a)
Cn1nc(C(F)(F)C(F)(F)F)c(C(F)(F)F)c1C(=O)Nc1cc(Cl)c(Br)c(C(=O)NCC(F)(F)F)c1 [Ik-215] | 4.14^a)
Cn1nc(C(F)(F)C(F)(F)F)c(C(F)(F)F)c1C(=O)Nc1ccc(Cl)c(C(=O)NCC(F)(F)F)c1 [Ik-87] | 3.67^a)
O=C(NCC=CCl)c1cc(NC(=O)c2cnc(C(F)(F)C(F)(F)F)nc2C(F)F)ccc1Cl [Ib-32] | 3.29^a)
Cn1nc(C(F)(F)C(F)(F)F)c(C(F)(F)F)c1C(=O)Nc1ccc(Br)c(C(=O)NCC(F)(F)F)c1 [Ik-173] | 3.77^a)
Cn1nc(C(F)(F)C(F)(F)F)c(C(F)(F)F)c1C(=O)Nc1cc(Br)cc(C(=O)NCC(F)(F)F)c1 [Ik-223] | 4.09^a)
Cn1nc(C(F)(F)OC(F)(F)C(F)(F)OC(F)(F)F)c(Br)c1C(=O)Nc1ccc(Cl)c(C(=O)NC2CC2)c1 [Ik-117] | 4.31^a)
Cn1nc(C(F)(F)C(F)(F)F)c(C(F)(F)F)c1C(=O)Nc1cc(Br)c(Cl)c(C(=O)NC2CC2)c1 [Ik-7] | 3.81^a)
Cc1nc(C(F)(F)C(F)(F)F)ncc1C(=O)Nc1ccc(Cl)c(C(=O)NCc2ccccc2)c1 [Ib-26] | 3.43^a)
Cn1nc(C(F)(F)C(F)(F)F)c(C(F)(F)F)c1C(=O)Nc1ccc(Cl)c(C(=O)NCC(F)F)c1 [Ik-86] | 3.41^a)
Cn1nc(-c2cc(C(F)(F)F)cc(C(F)(F)F)c2)c(C(F)(F)F)c1C(=O)Nc1ccc(Cl)c(C(=O)NC2CC2)c1 [Ik-259] | 4.19^a)
CSc1c(F)cc(NC(=O)c2c(C(F)(F)F)c(C(F)(F)C(F)(F)F)nn2C)cc1C(=O)NCc1ccccc1 [Ik-192] | 4.15^a)

same assay, conditions: HPLC method a), eluent acetonitrile/water with formic acid; read-out: logP

SMILES | chromatographic logP
Cn1nc(C(F)(F)C(F)(F)F)c(C(F)(F)F)c1C(=O)O [1-Methyl-3-pentafluoroethyl-4-trifluoromethyl-1H-pyrazole-5-carboxylic acid] | 1.86
Cn1nc(C(F)(F)C(F)(F)C(F)(F)C(F)(F)F)c(Br)c1C(=O)O [4-Bromo-1-methyl-3-nonafluorobutyl-1H-pyrazole-5-carboxylic acid] | 3.17

same assay, conditions: HPLC phase inversion (reversed-phase) C18 column, HPLC method a), eluent acetonitrile/water with formic acid; read-out: logP

SMILES | chromatographic logP
COC(=O)c1cc(NC(=O)c2c(C(F)(F)F)c(C(F)(F)C(F)(F)F)nn2C)cnc1Cl [methyl 2-chloro-5-({[1-methyl-3-(pentafluoroethyl)-4-(trifluoromethyl)-1H-pyrazol-5-yl]carbonyl}amino)nicotinate] | 3.7
Cc1nc(C(F)(F)C(F)(F)F)nc(C)c1C(=O)O [4,6-Dimethyl-2-(pentafluoroethyl)pyrimidine-5-carboxylic acid] | 1.63
COC(=O)c1cc(N)ncc1Cl [methyl 2-amino-5-chloroisonicotinate] | 1.3
Cn1nc(C(F)(F)C(F)(F)F)c(C(F)(F)F)c1C(=O)Nc1cnc(Cl)c(C(=O)O)c1 [Ik-131, 2-Chloro-5-({[1-methyl-3-(pentafluoroethyl)-4-(trifluoromethyl)-1H-pyrazol-5-yl]carbonyl}amino)nicotinic acid] | 2.27
Cn1nc(C(F)(F)C(F)(F)F)c(C(F)(F)F)c1C(=O)Nc1cc(C(=O)N[C@@H]2C[C@@H]2F)c(Br)cn1 [Ik-128, 5-Bromo-N-[(1R,2S)-2-fluorocyclopropyl]-2-({[1-methyl-3-(pentafluoroethyl)-4-(trifluoromethyl)-1H-pyrazol-5-yl]carbonyl}amino)isonicotinamide] | 3.19
O=C(NCC(F)(F)F)c1cc(NC(=O)c2[nH]nc(C(F)(F)C(F)(F)F)c2C(F)(F)F)ccc1Cl [Ik-124, N-{4-Chloro-3-[(2,2,2-trifluoroethyl)carbamoyl]phenyl}-3-(pentafluoroethyl)-4-(trifluoromethyl)-1H-pyrazole-5-carboxamide] | 3.26
Cn1nc(C(O)C2CC2)c(C(F)(F)F)c1C(=O)Nc1ccc(Cl)c(C(=O)NC2CC2)c1 (stereo not drawn) [N-[4-chloro-3-(cyclopropylcarbamoyl)phenyl]-3-[cyclopropyl(hydroxy)methyl]-1-methyl-4-(trifluoromethyl)-1H-pyrazole-5-carboxamide] | 2
Cn1ccc(C(F)(F)C(F)(F)F)n1 [1-Methyl-3-pentafluoroethyl-1H-pyrazole] | 2.29
Cn1nc(C(F)(F)C(F)(F)F)c(C(F)(F)F)c1C(=O)Nc1cc(C(=O)O)c(Cl)cn1 [Ik-129, 5-Chloro-2-({[1-methyl-3-(pentafluoroethyl)-4-(trifluoromethyl)-1H-pyrazol-5-yl]carbonyl}amino)isonicotinic acid] | 2.82

same assay, conditions: HPLC phase inversion (reversed-phase) C18 column, HPLC on C18 phase inversion column, method a); read-out: logP

SMILES | chromatographic logP
Cn1nc(C(F)(F)C(F)(F)F)c(C(F)(F)F)c1C(=O)Nc1cnc(Cl)c(C(=O)O)c1 [Ik-131, 2-Chloro-5-({[1-methyl-3-(pentafluoroethyl)-4-(trifluoromethyl)-1H-pyrazol-5-yl]carbonyl}amino)nicotinic acid] | 2.77
Cn1nc(C(F)(F)C(F)(F)F)c(C(F)(F)F)c1C(=O)Nc1cc(C(=O)N[C@@H]2C[C@@H]2F)c(Br)cn1 [Ik-128, 5-Bromo-N-[(1R,2S)-2-fluorocyclopropyl]-2-({[1-methyl-3-(pentafluoroethyl)-4-(trifluoromethyl)-1H-pyrazol-5-yl]carbonyl}amino)isonicotinamide] | 3.19
O=C(NCC(F)(F)F)c1cc(NC(=O)c2[nH]nc(C(F)(F)C(F)(F)F)c2C(F)(F)F)ccc1Cl [Ik-124, N-{4-Chloro-3-[(2,2,2-trifluoroethyl)carbamoyl]phenyl}-3-(pentafluoroethyl)-4-(trifluoromethyl)-1H-pyrazole-5-carboxamide] | 3.26
Cn1nc(C(F)(F)C(F)(F)F)c(C(F)(F)F)c1C(=O)Nc1cc(C(=O)O)c(Cl)cn1 [Ik-129, 5-Chloro-2-({[1-methyl-3-(pentafluoroethyl)-4-(trifluoromethyl)-1H-pyrazol-5-yl]carbonyl}amino)isonicotinic acid] | 2.82
